Measured values: PMC5025780, “Copper(II) ions affect the gating dynamics of the 20S proteasome: a molecular and in cell study” (Scientific Reports, 2016)
Read-outs that look alike come from different tables or passages of the source.

Key:
[1] = test system: T1, α3ΔN mutant 20S proteasome; assay: ChT-L peptidase activity of α3ΔN open-gate mutant yeast proteasome; assay type: biochemical, Saccharomices Cerevisiae; settings: permanently open gate mutant
T1 construct: made in house; host or cells: Saccharomyces cerevisiae (mutant strain)
Source text: All the experimental data collected so far reconcile with the hypothesis that Cu(II) ions have a direct influence on the gating mechanisms of the 20S proteasome. To further validate this hypothesis, we assayed the effect of Cu(II) ions on the ChT-L peptidase activity of a mutant proteasome (α3ΔN) where deletion of the first nine N terminal residues of the α3 subunit results in permanently open gate conformation. […] It is worthy to remark here that several histidine residues are located at the entrance of the channel and, more specifically in the proximity of the N-terminal tail of the α3 subunit (Fig. 4 panels B and C). It is tempting to speculate that these His residues may play a major role in driving the Copper(II) –mediated gating dynamics.
Purified human 20S proteasome (hCP) and the fluorogenic substrates Suc-LLVY-AMC, Z-Leu-Leu-Glu-AMC, and Ac-Arg-Leu-Arg-AMC used to assay the ChT-L, T-L, and C-L activity, were from Boston Biochem (Cambridge, MA, USA). Bathocuproinedisulfonic acid disodium salt (BCS), dithiothreitol (DTT), N-Acetyl-L-Cysteine (NAC), Sodium dodecylsulphate (SDS) as well as CuCl2 and Zn(NO3)2 were from Sigma-Aldrich (St. Louis, MO). Proteasome inhibitors Epoxomicin were obtained from Enzo Life Science. […]

[2] = test system: proteasome ChT-L activity in HeLa cells; assay: Proteasome-Glo Chymotrypsin-Like Cell-Based Assay in intact HeLa cells; design: species or system human; settings: for Copper-induced proteasome inhibition in cells pretreated with NAC: 100 μM NAC pretreatment 24 h
Description: HeLa cells (human cervix carcinoma), were cultured in Dulbecco’s MEM medium (Life Technologies) supplemented with 10% of fetal calf serum (FCS, Life Technologies), glutamax (Invitrogen), 100 U/mL penicillin, 100 µg/mL streptomycin. Cells were routinely grown as stocks in 75 cm^2 flasks in a humidified atmosphere (95% air, 5% CO2) at 37 °C.
The ChT-L proteolytic activity of the proteasome in intact HeLa cells were determined using the Proteasome-Glo™ Chymotrypsin-Like Cell-Based Assay (Promega) according to manufacturer's instructions. Briefly, 800 cells/well were grown in 384 sterile multiwells (optical plate and white walls) in 50 μl of DMEM + FBS10% + PenStrep 1%. After 4 h of cell seeding, Cu(II) was added in cell medium in a concentration range 10–80 μM for 24 h. Then the medium was removed and replaced with FCS free medium. To determine whether or not the residual proteolytic measured was dependent on to proteasome rather than other proteases, we performed a control experiment with epoxomicin, a specific proteasome inhibitor. Epoxomicin (5 μM) was added to the cells 60 min before the proteasome activity assay. The substrate for the β5 ChT-L activity (Suc-LLVY-aminoluciferin) was dissolved in Proteasome-Glo™ Cell-Based Reagent and added to intact cells. After 2 min of shaking for permeabilization and further 10 min of incubation at 25 °C, luminescence was measured with a Varioskan Flash (Thermo) micro plate reader. Proteasome activity in intact cells was also measured by using the internally quenched fluorogenic substrate H2N-K-K(Dabcyl)-K-K-L-L-V-Y-G-E(Edans)-G-R-K-K-R-R-Q-R-R-R- (TED) as described elsewhere. […] The peptide purity was determined by MALDI-TOF experiments carried out with a Bruker Reflex III time-of-flight (TOF) mass spectrometer operating in the reflection mode, and the matrix used was α-cyano 4-hydroxycinnamic. […] TED internalization and cleavage in live HeLa cells was assayed by fluorescence microscopy (see Figure S8 of Supplementary Information).

[3] = target: T2, human 20S proteasome (hCP), C-L activity; assay: C-L peptidase activity of isolated hCP (fluorogenic substrate); assay type: biochemical
T2 construct: purchased Boston Biochem (Cambridge, MA, USA)
Source text: Purified human 20S proteasome (hCP) and the fluorogenic substrates Suc-LLVY-AMC, Z-Leu-Leu-Glu-AMC, and Ac-Arg-Leu-Arg-AMC used to assay the ChT-L, T-L, and C-L activity, were from Boston Biochem (Cambridge, MA, USA). Bathocuproinedisulfonic acid disodium salt (BCS), dithiothreitol (DTT), N-Acetyl-L-Cysteine (NAC), Sodium dodecylsulphate (SDS) as well as CuCl2 and Zn(NO3)2 were from Sigma-Aldrich (St. Louis, MO). Proteasome inhibitors Epoxomicin were obtained from Enzo Life Science. Wild type 20S proteasome isolated from Saccharomices Cerevisiae (yCP) and a mutant (α3ΔN) where nine residues of the N-terminal tail of the α3 subunit are deleted to provide a permanently open-gate conformations were isolated as described elsewhere.
Peptidase activities of hCP (2 nM) were assayed on in 50 μL Tris 25 mM pH 7.6, at 37 °C with 100 μM of the fluorogenic substrate. hCP was incubated with Cu(II)/Zn(II) ions for 1 h prior activity assays. The fluorescence signal activated by peptide cleavage was recorded at 440 nm (excitation at 360 nm) for 45 min, by a Varioskan (Thermo^©) plate reader in 384 multiwell plates. Three replicates were performed for each data point. Data were reported as normalized percentages of residual activity. The potency (IC50) was calculated from the value of the dose response plot corresponding at a fractional activity of 50%. The IC50 values were determined using a non linear fit of experimental data in according to equation: […]
The midpoint of this function occurs at a fractional activity value of 50%, corresponding to half inhibition of the target enzyme. The IC50 values and their standard errors were deduced from the fitting. To evaluate if copper is a reversible PI, we measured the ChT-L activity of hCP incubated with Cu(II) (2.20 μM) before and after addition of an equimolar amount of EDTA.

HeLa cells = test system: HeLa cells; design: method as in PMID 9057888, PMID 21584299; settings: Cu(II)-supplemented media up to 100 μM; cited from earlier work
[4] = test system: T3, 26S/20S proteasome assembly in Hela cells; assay: Non-denaturing gel with in-gel peptidase activity of HeLa lysates (20S/26S ratio); assay type: cell-based, human; settings: 24 h
T3 construct: endogenous in cells; host or cells: HeLa cells
Description: Proteasome-enriched fractions were subjected to non denaturing native gel electrophoresis, as described elsewhere. Briefly, 100 μg of fractionated Hela cells lysates, pretreated for 24 h with 0, 20 or 80 μM Cu(II), were run on a 3–12% non-denaturing, gradient polyacrylamide gel (Invitrogen, Carlsbad, CA) according to a protocol reported elsewhere. hCP (2 μM) treated for 2 h with 0 μM, 20 μM and 80 μM of Cu (II) was used as reference control. Peptidolytic activity of proteasome-enriched fractions from cell lysates was evaluated after incubating the gels in a Suc-LLVY-AMC substrate dissolved in 50 mM Tris pH 8.0, 5 mM MgCl2, 1 mM DTT, 1 mM ATP, at 37 °C for 15 min. Proteasome bands were identified by the release of highly fluorescent free AMC which allowed us to identify the proteasome holo and subcomplexes. Images of the gels were acquired by Chemidoc (Biorad), and fluorescent bands were quantified by using the Image J software.

[Cl][Cu][Cl] [Cu(II), CuCl2]
Effect on ChT-L peptidase activity of α3ΔN mutant [1]: did not affect proteasome activity | Copper-induced proteasome inhibition in cells pretreated with NAC ([2]; Cu(II) 80 μM): did not overcome proteasome inhibition | ChT-L activity in HeLa cells (normalized to untreated controls) ([2]; Cu(II) 20 to 80 μM in medium, 24 h): 60% | Copper-induced proteasome inhibition in cells pretreated with NAC ([2]; Cu(II) 20–40 μM): completely abolished | IC50 ([3]; hCP 2 nM, 1 h preincubation with ions, Tris 25 mM pH 7.6, 37 °C, no SDS, read-out: IC50 C-L): 1010 nM | IC50 ([3]; in the presence of 0.018% SDS, other conditions unmodified, read-out: IC50 C-L, Cu(II) + SDS): 1830 nM | HeLa cell growth (HeLa cells): not inhibited | Intensity of CP, CP-RP and CP-RP2 bands ([4]; 20 μM Cu(II)): does not vary with respect to control | Intensity of CP, CP-RP1 and CP-RP2 bands ([4]; 80 μM Cu(II)): the amount of CP increases
